# According to patent publication US8940498B2, “Biological assays for the characterization of cells using single-cell tracking and uses thereof” (priority 2012, dated 2015):
# Read-outs that look alike come from different tables or passages of the source.
# Tests used:
# HeLa cells [1] = assay: cells; details: Homo sapiens, read-out: Average CQI, % of control
# HeLa cells [2] = assay: Classical clonogenic end-point assay; format: cell-based; details: 0.25 μM for 30 min
# HeLa cells [3] = details: for Average CQI: CQI Formula 1
# [4] = HeLa cells, 0.25 μM, normalized by 200 progenitors
# [5] = exposure to non-cytotoxic doses
molecule,measurement,setting,value
"CC[C@@]1(O)C(=O)OCc2c1cc1n(c2=O)Cc2cc3ccccc3nc2-1 [CPT, camptothecin]",activity at 0.1 µM,HeLa cells [1],102%
same,activity at 0.25 µM,HeLa cells [1],60%
same,activity at 1 µM,HeLa cells [1],22%
same,cell survival,HeLa cells [2],95%
same,Average CQI,"HeLa cells [3]; HeLa cells, 0.1 μM",9.3
same,CQI (Formula 2),"HeLa cells [3]; HeLa cells, 0.25 μM",0.026
same,total MD versus control,"HeLa cells [3]; HeLa cells, 0.25 μM",reduced
same,Average CQI,"HeLa cells [3]; HeLa cells, 0.25 μM",6.2
same,DD (number of dipolar division events),HeLa cells [3]; [4],1059 ± 95
same,"MD (multipolar division, TD+QD+HD)",HeLa cells [3]; [4],27.0 ± 4.5
same,QD (number of quadripolar division events),HeLa cells [3]; [4],4.0 ± 1.2
same,TD (number of tripolar division events),HeLa cells [3]; [4],23.0 ± 3.2
same,"Total DV (total cell division, DD+TD+QD+HD)",HeLa cells [3]; [4],1086 ± 9.7
same,Average CQI,"HeLa cells [3]; HeLa cells, 1 μM",1.8
same,CD induction and cell growth suppression,"HeLa cells [3]; HeLa cells, at non-cytotoxic dose (0.1 μM CPT, 1 μM MNNG)",neither CD induction nor cell growth suppression
same,non-cytotoxic dose,"HeLa cells [3]; HeLa cells, by average CQI",0.1 µM
same,sub-cytotoxic dose,"HeLa cells [3]; HeLa cells, by average CQI",0.25 µM
CC(=O)Nc1ccc(O)cc1 [acetaminophen],frequency of cells entering MD versus control cell populations,HeLa cells [3],not observed
[Cd] [cadmium],frequency of cells entering MD versus control cell populations,HeLa cells [3]; [5],more frequently found than control cell populations
C=O [formaldehyde],frequency of cells entering MD versus control cell populations,HeLa cells [3],more frequently found than control cell populations
same,non-cytotoxic dose,HeLa cells [3]; human,0.002 to 0.18 µM
CC(C)Cc1ccc(C(C)C(=O)O)cc1 (centres unmarked) [ibuprofen],frequency of cells entering MD versus control cell populations,HeLa cells [3]; [5],not observed
arsenic acid,frequency of cells entering MD versus control cell populations,HeLa cells [3]; [5],more frequently found than control cell populations
